The experiment has as its system L1210 leukemia ip in BDF1 mice, survival T/C. Kind of experiment: NCI In Vivo Anticancer Drug Screen. Data for tumor model L1210 Leukemia (intraperitoneal) in B6D2F1 (BDF1) mice. The conditions noted are these: endpoint: mean survival time, higher = longer survival. In short, it runs like this:
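In this screen, tumor-bearing mice given compound are compared to those given vehicle, and their survival values are reported as a treated-to-control quotient.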

The mark [1] stands for this setting: dose: 50.0 mg/kg/injection, schedule: Q04DX003 (ip), vehicle: saline.
The mark [2] stands for this setting: dose: 100.0 mg/kg/injection, schedule: Q04DX003 (ip), vehicle: saline.
The mark [3] stands for this setting: dose: 100.0 mg/kg/injection, schedule: Q01DX009 (ip), vehicle: Klucel (hydroxypropylcellulose) (HPC).
[4] abbreviates: dose: 100.0 mg/kg/injection, schedule: Q04DX003 (ip), vehicle: Klucel (hydroxypropylcellulose) (HPC).
[5] abbreviates: dose: 200.0 mg/kg/injection, schedule: Q01DX009 (ip), vehicle: Klucel (hydroxypropylcellulose) (HPC).
Where [6] appears, read: dose: 200.0 mg/kg/injection, schedule: Q04DX003 (ip), vehicle: Klucel (hydroxypropylcellulose) (HPC).
[7] abbreviates: dose: 400.0 mg/kg/injection, schedule: Q01DX009 (ip), vehicle: Klucel (hydroxypropylcellulose) (HPC).
[8] abbreviates: dose: 400.0 mg/kg/injection, schedule: Q04DX003 (ip), vehicle: Klucel (hydroxypropylcellulose) (HPC).
[9] abbreviates: dose: 75.0 mg/kg/injection, schedule: Q01DX001 (ip), vehicle: saline.
Where [10] appears, read: dose: 150.0 mg/kg/injection, schedule: Q01DX001 (ip), vehicle: saline.
Setting [11] is: dose: 100.0 mg/kg/injection, schedule: Q01DX001 (ip), vehicle: carboxymethylcellulose (CMC).
Setting [12] is: dose: 200.0 mg/kg/injection, schedule: Q01DX001 (ip), vehicle: carboxymethylcellulose (CMC).
Setting [13] is: dose: 400.0 mg/kg/injection, schedule: Q01DX001 (ip), vehicle: carboxymethylcellulose (CMC).
Setting [14] is: dose: 100.0 mg/kg/injection, schedule: Q01DX009 (ip), vehicle: saline with Tween-80.
[15] abbreviates: dose: 200.0 mg/kg/injection, schedule: Q01DX009 (ip), vehicle: saline with Tween-80.
[16] abbreviates: dose: 50.0 mg/kg/injection, schedule: Q01DX009 (ip), vehicle: Klucel (hydroxypropylcellulose) (HPC).
Setting [17] is: dose: 50.0 mg/kg/injection, schedule: Q01DX009 (ip), vehicle: saline.
Setting [18] is: dose: 100.0 mg/kg/injection, schedule: Q01DX009 (ip), vehicle: saline.
The mark [19] stands for this setting: dose: 100.0 mg/kg/injection, schedule: Q04DX003 (ip), vehicle: saline with Tween-80.
The mark [20] stands for this setting: dose: 200.0 mg/kg/injection, schedule: Q04DX003 (ip), vehicle: saline with Tween-80.
Where [21] appears, read: dose: 400.0 mg/kg/injection, schedule: Q04DX003 (ip), vehicle: saline with Tween-80.
The mark [22] stands for this setting: dose: 12.5 mg/kg/injection, schedule: Q01DX009 (ip), vehicle: saline.
The mark [23] stands for this setting: dose: 100.0 mg/kg/injection, schedule: Q01DX001 (ip), vehicle: saline.
[24] abbreviates: dose: 200.0 mg/kg/injection, schedule: Q01DX001 (ip), vehicle: saline.
The mark [25] stands for this setting: dose: 400.0 mg/kg/injection, schedule: Q01DX001 (ip), vehicle: saline.

Our source for the T/C values is PubChem BioAssay AID248 (DTP/NCI, 2004).

The structures appear in SMILES notation. Where “and” joins values, the source holds several entries; their conditions need not be identical. Equal values may be shown once. Toxic doses and inconclusive results are not listed.

Regarding `CC(C)CCSc1nc(N)nc2nc[nH]c12`, the T/C is, setting by setting: (dose: 62.5 mg/kg/injection, schedule: Q01DX Z (ip), vehicle: carboxymethylcellulose (CMC)) 122 % of control; (dose: 125.0 mg/kg/injection, schedule: Q01DX Z (ip), vehicle: carboxymethylcellulose (CMC)) 107 % of control; (dose: 250.0 mg/kg/injection, schedule: Q01DX Z (ip), vehicle: carboxymethylcellulose (CMC)) 100 % of control.

As to `CCCCCCC#CC(=O)OCC`, the T/C is 89 % of control (dose: 100.0 mg/kg/injection, schedule: Q04DX002 (ip), vehicle: saline) and 104 % of control (dose: 200.0 mg/kg/injection, schedule: Q04DX002 (ip), vehicle: saline).

As to `CCCCSc1ccccn1`, the T/C by setting is: under setting [1], 114 % of control; under setting [2], 98 % of control; (dose: 200.0 mg/kg/injection, schedule: Q04DX003 (ip), vehicle: saline) 90 % of control.

Regarding `C(=Nc1ccc2c(c1)Cc1ccccc1-2)c1ccnc2ccccc12`, the T/C is, setting by setting: under setting [3], 97 % of control; under setting [4], 92 % of control; under setting [5], 100 % of control; under setting [6], 90 % of control; under setting [7], 97 % of control; under setting [8], 94 % of control.

On to `O=CN/N=C/c1ccc(Cl)cc1Cl`, for which the T/C under setting [9] is 95 % of control and the T/C under setting [10] was 104 % of control.

As for `N#CCC(=O)N/N=C\c1ccc2c(c1)OCO2`, the T/C reads like this: under setting [11], 97 % of control; under setting [12], 94 % of control; under setting [13], 97 % of control.

For `COC(=O)C/C=C/CC(=O)OC`, the T/C runs as follows: under setting [14], 95 % of control; under setting [15], 90 % of control; (dose: 400.0 mg/kg/injection, schedule: Q01DX009 (ip), vehicle: saline with Tween-80) 88 % of control.

Regarding `O=C(CCl)NCCCCCNC(=O)CCl`, the T/C reads like this: under setting [3], 104 % of control; under setting [5], 105 % of control.

`O=C(Cc1cccc2ccccc12)N/N=C/c1ccc(Cl)cc1Cl`: the T/C under setting [14] was 96 % of control and the T/C under setting [15] is 93 % of control.

As for `CC(C)C1C(C)N1C(C)C` (centres undefined), the T/C is 107 % of control (dose: 25.0 mg/kg/injection, schedule: Q01DX009 (ip), vehicle: Klucel (hydroxypropylcellulose) (HPC)); 100 % of control under setting [16]; 104 % of control under setting [3]; 95 % of control under setting [4].

Consider `COC(=O)C(N)CCCCNC(c1ccccc1)(c1ccccc1)c1ccccc1` (centres undefined), for which the T/C under setting [17] was 107 % of control and the T/C under setting [18] is 86 % of control.

As for `COc1ccc(C2C(=O)NN=C2C)cc1` (centres undefined), the T/C by setting is: under setting [11], 96 % of control; under setting [12], 96 % of control; under setting [13], 102 % of control.

As to `O=C1CSSCC(=O)NCCN1`, the T/C (dose: 100.0 mg/kg/injection, schedule: Q04DX002 (ip), vehicle: Klucel (hydroxypropylcellulose) (HPC)) was 93 % of control and 96 % of control; the T/C (dose: 200.0 mg/kg/injection, schedule: Q04DX002 (ip), vehicle: Klucel (hydroxypropylcellulose) (HPC)) is 93 % of control and 96 % of control; the T/C (dose: 400.0 mg/kg/injection, schedule: Q04DX002 (ip), vehicle: Klucel (hydroxypropylcellulose) (HPC)) is 93 % of control and 96 % of control.

Turning to `C=C(C)C(O)CC(C)C` (centres undefined), the T/C under setting [11] is 100 % of control, the T/C under setting [12] is 100 % of control and the T/C under setting [13] is 94 % of control.

Consider `COc1ccc(CC2=NCCc3cc(OC)c(OC)cc32)cc1OC`, for which the T/C by setting is: under setting [9], 97 % of control; under setting [18], 96 % of control and 90 % of control; under setting [2], 110 % of control and 89 % of control; under setting [10], 100 % of control.

Consider `COc1ccc(C(=O)NS(=O)(=O)c2ccc(Cl)cc2)cc1`, for which the T/C is, setting by setting: under setting [19], 107 % of control; under setting [20], 91 % of control; under setting [21], 114 % of control.

For the compound `CC(=O)c1ccc(F)cc1`, the T/C is 98 % of control under setting [16]; 98 % of control under setting [3]; 86 % of control under setting [4]; 97 % of control under setting [5]; 98 % of control under setting [6].

In the case of `CC1(C)C2CCC1(C)C(NCc1cc(Br)cc(Br)c1O)C2` (centres undefined), the T/C is 92 % of control under setting [4], 97 % of control under setting [6] and 98 % of control under setting [8].

Consider `CN(C)c1ccc(/C=N\NC(=O)CCCCC(=O)N/N=C\c2ccc(N(C)C)cc2)cc1`, for which the T/C was 94 % of control under setting [4], 91 % of control under setting [6] and 91 % of control under setting [8].

`CC(C)=CCC/C(C)=C/C#N`: the T/C was 100 % of control under setting [11], 111 % of control under setting [12] and 94 % of control under setting [13].

As for `CN(C)CCC=C1c2ccccc2C=Cc2ccccc21`, the T/C is, setting by setting: (dose: 3.12 mg/kg/injection, schedule: Q01DX009 (ip), vehicle: saline) 98 % of control; (dose: 6.25 mg/kg/injection, schedule: Q01DX009 (ip), vehicle: saline) 93 % of control and 104 % of control; under setting [22], 107 % of control and 96 % of control; (dose: 25.0 mg/kg/injection, schedule: Q01DX009 (ip), vehicle: saline) 98 % of control and 101 % of control; (dose: 25.0 mg/kg/injection, schedule: Q04DX003 (ip), vehicle: saline) 112 % of control and 103 % of control; under setting [17], 109 % of control. In addition, under setting [1], the T/C is 98 % of control and 105 % of control.

As to `CCCCCCCCCCCCCCCCCCNC(=O)NNC(=O)CCCC(=O)NNC(=O)NCCCCCCCCCCCCCCCCCC`, the T/C is, setting by setting: (dose: 50.0 mg/kg/injection, schedule: Q01DX001 (ip), vehicle: saline) 91 % of control; under setting [23], 97 % of control; under setting [24], 100 % of control; under setting [25], 97 % of control.

Turning to `O=C(O)C12C3C4CC5C3C1C5C42` (centres undefined), the T/C reads like this: under setting [19], 98 % of control; under setting [20], 106 % of control; under setting [21], 97 % of control.

As to `CCCCCCCCCCCCC(CCCCCCCCCCC)CCCCCCCCCCCC`, the T/C is, setting by setting: (dose: 100.0 mg/kg/injection, schedule: Q01DX001 (ip), vehicle: saline with Tween-80) 97 % of control; (dose: 200.0 mg/kg/injection, schedule: Q01DX001 (ip), vehicle: saline with Tween-80) 97 % of control; (dose: 400.0 mg/kg/injection, schedule: Q01DX001 (ip), vehicle: saline with Tween-80) 96 % of control.

As to `COc1c([N+](=O)[O-])cc(C)nc1Cl`, the T/C by setting is: under setting [23], 95 % of control; under setting [24], 101 % of control; under setting [25], 101 % of control.

With `NNC(=O)C(CSC(c1ccccc1)c1ccccc1)NC(=O)C(CSC(c1ccccc1)(c1ccccc1)c1ccccc1)NC(=O)OCc1ccccc1` (centres undefined), the T/C is 97 % of control under setting [3], 97 % of control under setting [5] and 94 % of control under setting [7].

For the compound `COc1ccccc1CC(C)(C)O`, the T/C was 98 % of control (dose: 50.0 mg/kg/injection, schedule: Q01DX009 (ip), vehicle: saline with Tween-80); 95 % of control under setting [14]; 101 % of control under setting [15].

On to `OCCNc1nc2ccccc2c2ccccc12`, for which the T/C runs as follows: (dose: 75.0 mg/kg/injection, schedule: Q01DX001 (ip), vehicle: carboxymethylcellulose (CMC)) 98 % of control; (dose: 150.0 mg/kg/injection, schedule: Q01DX001 (ip), vehicle: carboxymethylcellulose (CMC)) 112 % of control.

Turning to `CN(Cc1cnc2nc(N)nc(N)c2n1)c1ccc(C(=O)NC(CCC(=O)NCC(=O)O)C(=O)O)cc1` (centres undefined), the T/C was 174 % of control (dose: 5.0 mg/kg/injection, schedule: Q01DX009 (ip), vehicle: sodium bicarbonate) and 161 % of control (dose: 10.0 mg/kg/injection, schedule: Q01DX009 (ip), vehicle: sodium bicarbonate).

Consider `N#CC[CH2][Sn]([Br])([Br])[CH2]CC#N`, for which the T/C is, setting by setting: under setting [22], 103 % of control; under setting [17], 96 % of control.
